Values quoted from earlier work, collected in US8969340B2, “Methods for treating chronic pelvic pain syndrome” (Northwestern University, priority 2004, dated 2015).
Read-outs that look alike come from different tables or passages of the source.

Biological target: T1, CCR-2 receptor (Homo sapiens, UniProt P41597)
T1 sequence (P41597 1-360 isoform P41597-2): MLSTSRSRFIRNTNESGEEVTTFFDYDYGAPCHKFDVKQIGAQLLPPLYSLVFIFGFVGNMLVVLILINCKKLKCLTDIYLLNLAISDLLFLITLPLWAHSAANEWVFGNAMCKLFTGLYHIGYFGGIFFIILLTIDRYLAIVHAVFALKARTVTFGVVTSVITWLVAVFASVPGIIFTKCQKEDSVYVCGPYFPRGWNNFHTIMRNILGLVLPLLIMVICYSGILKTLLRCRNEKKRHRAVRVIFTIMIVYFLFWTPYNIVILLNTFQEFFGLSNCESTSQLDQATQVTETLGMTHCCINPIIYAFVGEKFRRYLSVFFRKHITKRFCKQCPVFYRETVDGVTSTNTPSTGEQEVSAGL
Settings: indolopiperidines

Ki (variation of X and R) [µM] | Ki (variation of chain length n) [µM] | Structure (SMILES)
> 10 |  | O=S(=O)(NCCCCCN1CCC(c2c[nH]c3ccccc23)CC1)c1ccc(Cl)c(Cl)c1 [compound 10]
 | > 10 | O=C(/C=C/c1ccc(Cl)c(Cl)c1)NCCN1CCC(c2c[nH]c3ccccc23)CC1 [compound 30]
